Laboratory results as given in PubChem BioAssay (NCI).
Where “and” joins values, the source holds several entries; their conditions need not be identical. Identical values can stand only once.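 Assay format: 96-well plates, 48-hour exposure. GI50 is the concentration that inhibits growth by half. At the TGI there is no net growth.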

What was measured:
Assay in all cases: growth of human tumour cells (NCI), 48 h
786-0 renal = system: 786-0 renal
DMS 273 small cell lung = system: DMS 273 small cell lung
HL-60(TB) leukemia = system: HL-60(TB) leukemia
LXFL 529 NSCLC = system: LXFL 529 NSCLC
M14 melanoma = system: M14 melanoma
MOLT-4 leukemia = system: MOLT-4 leukemia
OVCAR-4 ovarian = system: OVCAR-4 ovarian
SF-295 CNS = system: SF-295 CNS
SK-MEL-5 melanoma = system: SK-MEL-5 melanoma
SNB-78 CNS = system: SNB-78 CNS
HOP-92 NSCLC = system: HOP-92 NSCLC
MDA-MB-435 = system: MDA-MB-435

Row | Compound | TGI (786-0 renal) | TGI (DMS 273 small cell lung) | TGI (HL-60(TB) leukemia) | TGI (LXFL 529 NSCLC) | TGI (M14 melanoma) | TGI (MOLT-4 leukemia) | TGI (OVCAR-4 ovarian) | TGI (SF-295 CNS) | TGI (SK-MEL-5 melanoma) | TGI (SNB-78 CNS) | TGI (HOP-92 NSCLC) | TGI (MDA-MB-435) | GI50 (HOP-92 NSCLC) | GI50 (MDA-MB-435) | GI50 (OVCAR-4 ovarian) | GI50 (SF-295 CNS) | GI50 (SK-MEL-5 melanoma) | GI50 (M14 melanoma) | GI50 (MOLT-4 leukemia)
1 | Cc1nc2c(n1Cc1ccc(Cl)cc1)C(=O)c1ccccc1C2=O | > 75 µM | > 75 µM | > 75 µM | > 75 µM | > 75 µM | > 75 µM | > 75 µM | > 75 µM | > 75 µM | > 75 µM | – | – | – | – | – | – | – | – | –
2 | CC(=O)O[C@]12CCCCCCC1C1(O)C(O)CCC[C@H]12 (stereo partly drawn) | > 100 µM | > 100 µM | – | > 100 µM | > 100 µM | > 100 µM | > 100 µM | > 100 µM | > 100 µM | > 100 µM | – | – | – | – | – | – | – | – | –
3 | O=S1(=O)NNC(=NCc2ccc(F)cc2)c2ccccc21 | > 100 µM | > 100 µM | 19.6 µM | > 100 µM | > 100 µM | > 70.8 µM | > 100 µM | > 100 µM | > 100 µM | > 100 µM | > 83.5 µM | > 100 µM | – | – | – | – | – | – | –
4 | Brc1ccc(N2C[N+](c3ccc(Br)cc3)=NC(c3ccccc3)=N2)cc1 | 29.5 µM and > 100 µM | 21.1 µM and > 100 µM | 35.2 µM and > 100 µM | 23 µM and > 100 µM | 26.2 µM and > 100 µM | 32.5 µM and > 100 µM | 35.3 µM and > 100 µM | 29.1 µM and > 100 µM | 29.4 µM and > 100 µM | 70.6 µM and > 100 µM | 34.1 µM and > 100 µM | – | – | – | – | – | – | – | –
5 | NC1=NS(=O)(=O)N=C(N)C1=Cc1ccc([N+](=O)[O-])o1 | 30.8 µM | 30.3 µM | > 100 µM | 30.8 µM | 26.9 µM | 40.7 µM | 34.1 µM | 61.8 µM | 28.6 µM | 47.9 µM | 26.7 µM | – | – | – | – | – | – | – | –
6 | O=C(c1cccs1)N(C(=S)N1CCN(c2ccccc2)CC1)c1ccccc1 | > 100 µM | > 100 µM | > 100 µM | > 100 µM | > 100 µM | > 100 µM | > 100 µM | > 100 µM | > 100 µM | > 100 µM | > 100 µM | – | – | – | – | – | – | – | –
7 | O=[N+]([O-])c1ccc2nc3ccc([N+](=O)[O-])cn3c2c1 | > 100 µM | – | > 100 µM | – | > 100 µM | > 100 µM | > 100 µM | > 100 µM | > 100 µM | – | > 100 µM | > 100 µM | – | – | – | – | – | – | –
8 | CCCCCCCCCCCCCCCCP(=O)(O)OP(=O)(O)OCC1OC(n2ccc(N)nc2=O)C(O)C1O (stereo not drawn) | > 100 µM and 27.6 µM | – | > 100 µM | – | > 100 µM | > 100 µM and 22.7 µM | > 100 µM | > 100 µM and 56.5 µM | > 100 µM and 34.3 µM | – | > 100 µM and 67.4 µM | > 100 µM | 65.3 µM and 17.6 µM | > 100 µM and 14.6 µM | 91.4 µM and 43.8 µM | 43 µM and 20.5 µM | > 100 µM and 11.2 µM | – | –
9 | Oc1ccc2ccccc2c1-c1nnc(CCCCCCCCc2nnc(-c3c(O)ccc4ccccc34)o2)o1 | 8.94 µM and 30.9 µM | – | 2.5 µM | – | 25 µM and 55.1 µM | – | 25 µM | 25 µM and > 93.6 µM | 8.59 µM and 44.2 µM | – | > 79 µM | 25 µM and > 100 µM | – | 3.5 µM | 2.35 µM | 2.83 µM | 3.15 µM | 4.77 µM | 0.0812 µM
10 | O=C1CCSSCCC(=O)Nc2ccccc2N1 | > 100 µM | – | > 100 µM | – | > 100 µM | > 100 µM | > 100 µM | > 100 µM | > 100 µM | – | > 100 µM | > 100 µM | – | – | – | – | – | – | –
11 | COc1cn2c(cc1=O)COc1ccc(-c3ccccc3)cc1-2 | > 100 µM | – | > 100 µM | – | > 100 µM | > 100 µM | > 100 µM | > 100 µM | > 76 µM | – | > 100 µM | > 100 µM | – | – | – | – | – | – | –
12 | CC1(C)CC(=O)C(/C=N/c2nc(-c3ccc(Br)cc3)cs2)=C(O)C1 | > 100 µM | – | > 100 µM | – | 48.4 µM | > 100 µM | > 100 µM | > 100 µM | > 100 µM | – | > 100 µM | 76.5 µM | – | – | – | – | – | – | –
13 | CC1(C)OC[C@@H](/C=C\CCO[Si](c2ccccc2)(c2ccccc2)C(C)(C)C)N1C(=O)c1ccccc1 | 28 µM | – | 14.6 µM | – | 32.8 µM | 47.1 µM | > 100 µM | > 100 µM | 12 µM | – | 52.7 µM | > 100 µM | – | – | – | – | – | – | –
14 | CC1=NN(c2nc(N)nc(/C(C#N)=C/c3ccncc3)n2)C(C)(C)C1 | > 100 µM | – | > 100 µM | – | > 100 µM | > 100 µM | > 100 µM | > 100 µM | > 100 µM | – | > 100 µM | > 100 µM | – | – | – | – | – | – | –
15 | CCCCN(CCCC)C(=NCc1ccccc1)NC#N | 47 µM | 75.7 µM | 35.7 µM | 31.2 µM | 52.1 µM | – | > 100 µM | 35.6 µM | 38.9 µM | 70.2 µM | 33.4 µM | – | – | – | – | – | – | – | –
16 | O=C(Nc1cccc2nsnc12)c1cc2c(cc1Cl)Sc1nccn1S2(=O)=O | 32 µM | – | 3.72 µM | – | 42.5 µM | > 30.7 µM | 15.6 µM | 28.2 µM | 38.5 µM | – | 25.2 µM | 36.5 µM | – | – | – | – | – | – | –
17 | Cc1ccc2c(c1)c(=O)c1c(NCCN(C)C)ccc3nnn2c31 | 15.9 µM | – | 8.58 µM | 20.1 µM | 16.4 µM | 5.06 µM | 12.9 µM | 15.4 µM | 14.1 µM | 24.2 µM | 11.5 µM | – | – | – | – | – | – | – | –
18 | CN(C)c1ccc(-c2nc(-c3cc4c(ccc5ccccc54)oc3=O)cs2)cc1 | > 100 µM | – | > 100 µM | – | > 100 µM | > 100 µM | > 100 µM | > 100 µM | > 100 µM | – | > 100 µM | > 100 µM | – | – | – | – | – | – | –
19 | COc1cc(C(=O)Nc2nnc(S(N)(=O)=O)s2)cc(OC)c1OC | > 100 µM | – | > 100 µM | – | > 100 µM | > 100 µM | > 100 µM | > 100 µM | > 100 µM | – | > 100 µM | > 100 µM | – | – | – | – | – | – | –
20 | COc1cc(C2SCC(=O)N2NC(=O)c2ccc(NC(C)=O)cc2)cc(OC)c1OC (stereo not drawn) | > 100 µM | – | > 100 µM | – | > 100 µM | > 100 µM | > 100 µM | > 100 µM | > 100 µM | – | > 100 µM | > 100 µM | – | – | – | – | – | – | –
21 | O=C(c1ccccc1F)c1c(NCc2ccccc2)c(=O)c1=O | > 100 µM | – | > 100 µM | – | > 100 µM | > 100 µM | > 100 µM | > 100 µM | > 100 µM | – | > 100 µM | > 100 µM | – | – | – | – | – | – | –
22 | Cc1ccc(S(=O)(=O)Nn2c(-c3ccccc3)c(C#N)c(-c3ccc([N+](=O)[O-])cc3)c(C#N)c2=O)cc1 | > 100 µM | – | > 100 µM | – | > 100 µM | > 100 µM | > 100 µM | > 100 µM | > 100 µM | – | > 100 µM | > 100 µM | – | – | – | – | – | – | –
23 | CC1CN=C(c2cccc(OCc3ccc(COc4cccc(C5=NCC(C)N5)c4)cc3)c2)N1 (stereo not drawn) | > 100 µM | – | > 100 µM | – | > 100 µM | 57.3 µM | > 100 µM | > 100 µM | > 100 µM | – | > 100 µM | > 100 µM | – | – | – | – | – | – | –
24 | CN(C)c1ccc(C(=NNC(=O)c2cc3ccccc3[nH]2)c2ccc(N(C)C)cc2)cc1 | 19.8 µM | – | 0.678 µM | – | 29 µM | > 100 µM | > 100 µM | 5.52 µM | > 100 µM | – | 31.8 µM | 0.371 µM | – | – | – | – | – | – | –
25 | CCOC(=O)c1cc(-c2ccc(OC)c(OC)c2)c[nH]1 | > 10 µM | – | > 10 µM | – | > 10 µM | > 10 µM | > 10 µM | > 10 µM | > 10 µM | – | > 10 µM | > 10 µM | – | – | – | – | – | – | –
26 | c1ccc(C2=NN3CN(N2)c2ccccc2OCCCOc2ccccc23)cc1 | > 100 µM | > 100 µM | > 100 µM | > 100 µM | > 100 µM | > 100 µM | > 100 µM | > 100 µM | > 100 µM | > 100 µM | – | – | – | – | – | – | – | – | –
27 | Cc1[nH]c(=O)nc(N/N=C/c2ccc(Cl)c(Cl)c2)c1C(=O)Nc1ccc(Cl)c(Cl)c1 | > 39 µM | – | > 78.2 µM | – | 15.7 µM | > 100 µM | 11 µM | > 30.7 µM | 22.8 µM | – | 39.3 µM | > 39.5 µM | – | – | – | – | – | – | –
28 | CCOC(=O)c1c2c(n(C)c1-c1ccccc1)C(=O)C(C)=CC2=O | 32.1 µM | – | 9.79 µM | – | 13.5 µM | 9.96 µM | 20.3 µM | 36.8 µM | 21.5 µM | – | 5.46 µM | 3.68 µM | – | – | – | – | – | – | –
29 | O=C1c2cc3c(cc2CC12Cc1cc4c(cc1C2)CCC4)CCC3 | > 100 µM | – | > 100 µM | – | > 100 µM | > 100 µM | > 100 µM | > 100 µM | > 100 µM | – | > 100 µM | > 100 µM | – | – | – | – | – | – | –
30 | CCOC(=O)CCC(NC(=O)OCc1ccccc1)C(=O)NNC(=O)OC(C)(C)C (stereo not drawn) | > 100 µM | – | > 100 µM | – | > 100 µM | > 100 µM | > 100 µM | > 100 µM | > 100 µM | – | > 100 µM | > 100 µM | – | – | – | – | – | – | –
